Reference: patent US9688637B2, “3-amidobenzamides and uses thereof for increasing cellular levels of A3G and other A3 family members” (Northwestern University, priority 2014, dated 2017)

Assays:
[1] = system: Wild-type HIV-1; test: A3G-mediated restriction of wild-type HIV-1; virus from 293T stably expressing A3G, TZM-bl readout; type: cell-based; details: Human immunodeficiency virus 1, HEK-293T, read-out: A3G-mediated Restriction by Compounds on Wild-type HIV-1 (% of HIV replication relative to DMSO treated Control)
Protocol: (§1) To test the effect of compounds shown to boost A3G-Luc levels in our screening systems on inhibition of wild-type HIV-1 replication by A3G or A3F, 293T cell lines stably expressing A3G or A3F were plated (750,000 cells per well in 6-well plate). At 24 hrs post plating, 1.5 μg of a wild-type (Vif-positive) HIV-1 proviral vector, NL4.3, was transfected into the 293T stable cell lines expressing either A3G or A3F. At 4 hrs post transfection, either DMSO as a control or an individual compound from series described below was added into the culture medium at a 10 μM concentration. At 1 day post transfection, supernatant fluids containing viral particles were filtered through […] filter to remove cellular debris. To test the effect of compound on HIV-1 replication, TZM-bl indicator cells were plated at a density of 10,000 cells/well in a 96 well culture plate 24 hrs prior to infection. TZM-bl indicator cells express luciferase gene under the control of HIV LTR promoter and are routinely used to measure HIV-1 replication capability. On the day of infection, the culture medium was removed and the cells inoculated with equal amount of HIV-1 particles in triplicate with 100 μl of viral supernatants in culture medium containing 20 μg/ml DEAE-dextran. After 24 hrs of incubation, culture medium was removed from each well and replaced with 100 μl of Britelite Plus luciferase assay substrate. Following 5 min. of incubation at room temperature, 75 μl of each cell lysate was transferred to a 96-well OptiPlate 96 and luminescence was measured in a VICTOR X2 Multilabel Reader as described above. Relative infectivity was calculated by plotting luciferase activity from viral particle from DMSO treated A3G or A3F cell lines as 100%. We only tested effect A3F- or A3G mediated restriction of HIV-1 replication by compounds boosting luciferase activity by more than 160% compared to DMSO control sample.

[2] = system: A3G-Luc/Vif; test: A3G-Luc/Vif luciferase screen in 293T cells stably co-expressing A3G-Luc and HIV-1 Vif; type: cell-based, human; details: 10 μM, 48 hrs, DMSO = 100%
Protocol: FIG. 6. 293T cell clone #6 stably co-expressing A3G-Luciferase fusion protein together with HIV-1 Vif was used. Small molecule compounds were tested for their effects on stability of A3G and inhibition of Vif activity against A3G by measuring luciferase activity, relative to treatment with control DMSO only. The relative % luciferase activity was higher after treatment with NU compounds than DMSO.
[…]. After sorting, expression of both A3G-Luc and Vif was confirmed by immunoblotting using antibody against both A3G and Vif.
(§2) To screen compounds that can boost A3G levels, 293T cells (25,000 cells per well in 96-well plate) stably expressing A3G-Luc protein or A3G-Luc/Vif proteins were plated. After 24 hrs post plating culture medium was replaced with 100 μl of new medium containing either DMSO as a control or various compounds (10 μM concentration). After 48 hrs of incubation with compounds culture medium was removed from each well and replaced with 100 μl of Britelite Plus luciferase assay substrate (PerkinElmer). Following 5 min. of incubation at room temperature, 75 μl of each cell lysate was transferred to a 96-well OptiPlate 96 (PerkinElmer) and luminescence was measured in a VICTOR X2 Multilabel Reader (PerkinElmer). Relative activity of compounds for their boosting capability A3G-Luc activity was calculated by plotting DMSO-treated A3G-Luc or A3G-Luc/Vif cells as 100%. Cellular cytotoxicity was measured by counting number of cells after 48 hrs of incubation with compounds compared to DMSO treated cells.

[3] = system: Wild-type HIV-1; test: A3F-mediated restriction of wild-type HIV-1; virus from 293T stably expressing A3F, TZM-bl readout; type: cell-based; details: Human immunodeficiency virus 1, HEK-293T, read-out: A3F-mediated Restriction by Compounds on Wild-type HIV-1 (% of HIV replication relative to DMSO treated Control)
Protocol: as §1

[4] = system: A3G-Luc; test: A3G-Luc luciferase screen in 293T cells stably expressing A3G-Luc; type: cell-based, human; details: 48 hrs, DMSO = 100%
From the text: This background led to construction of cell lines to use in a search for compounds that might boost levels of A3s in the HIV target cells of the majority of HIV-infected persons who are non-controllers. The goal is to test a strategy of using such a booster in acute/early infection to prevent the hypothesized decrease of A3G and related A3s in an effort to increase “control” in persons lacking HLA B57/27-associated control. […] 293T and TZM-bl cells were maintained in DMEM (containing 4.5 g/liter glucose, L-glutamine, and sodium pyruvate) medium plus 10% fetal bovine serum, 50 IU/ml penicillin, and 50 μg/ml streptomycin at 37° C. and 5% CO2 throughout the experiments. […]. After collecting viral supernatant, 293T cells were infected with viral particles harboring the A3G-Luc expressing vector and selected with puromycin (0.75 μg/ml) for three days. Ten single cell clones of stable cells were isolated and tested for expression of A3G-Luc protein by both immunoblotting using antibody against A3G and measuring luciferase activity. Expressions in cell lines used for subsequent experiments are depicted in FIG. 2, upper panel. The A3G-Luc fusion protein was sensitive to Vif-mediated degradation (FIG. 3). Similar cells lines stably expressing A3F were constructed with the same methods (not shown).
as §2, with “After 24 hrs post plating culture medium was replaced with 100 μl of new medium containing either DMSO as a control or various compounds (10 μM concentration).” left out

[5] = system: A3G-Luc/Vif; test: A3G-Luc/Vif luciferase screen in 293T cells stably co-expressing A3G-Luc and HIV-1 Vif; type: cell-based, human; details: 30 μM, 48 hrs, DMSO = 100%
[6] = system: 293T cells; test: Cellular cytotoxicity by counting cells after 48 hrs with compound vs DMSO; type: cell-based; details: 48 hrs; for Cytotoxicity: Cell Proliferation Blocked at: concentration at which proliferation was blocked
Protocol: as §2

[7] = system: BC-1; test: BC-1 primary effusion lymphoma cell proliferation; type: cell-based; details: primary effusion lymphoma (PEL) cell line (FIG. 10)
From the text: FIG. 10. A primary effusion lymphoma (PEL) cell line (BC-1, infected with both Kaposi's sarcoma herpesvirus and Epstein Barr Virus) is also killed by the listed compounds.

| Compound | activity at 10 µM [1] [%] | Vif-A3G-Luc Activity (% of RLUs compared to DMSO treated control) [2] [%] | activity at 10 µM [3] [%] | A3G-Luc Activity (% of Relative Light Units compared to DMSO treated control) ([4]; 10 μM) [%] | also measured |
| --- | --- | --- | --- | --- | --- |
| COc1ccc(C(=O)Nc2ccc(Cl)c(Cl)c2)cc1NS(=O)(=O)C(C)C [NU-468] | 58 | 147 | 48 | 213 | – |
| COc1ccc(C(=O)Nc2ccc(Cl)c(Cl)c2)cc1NC(=O)C(C)(C)C [NU-458] | 54 | 123 | 45 | 189 | – |
| COc1ccc(C(=O)Nc2cc(OC)c(OC)c(OC)c2)cc1NC(=O)C(C)C [NU-56] | – | – | – | – | Vif-A3G-Luc Activity (% of RLUs compared to DMSO treated control) [5]: 93%; A3G-Luc Activity (% of Relative Light Units compared to DMSO treated control) ([4]; 30 μM): 114% |
| COc1ccc(NC(=O)c2ccc(OC)c(NC(=O)C(C)C)c2)cc1 [NU-54] | – | – | – | – | Vif-A3G-Luc Activity (% of RLUs compared to DMSO treated control) [5]: 116%; A3G-Luc Activity (% of Relative Light Units compared to DMSO treated control) ([4]; 30 μM): 137% |
| COc1ccc(C(=O)Nc2cc(OC)c(OC)c(OC)c2)cc1N [NU-49] | – | – | – | – | Cytotoxicity: Cell Death at ([6]; concentration at which cell death was seen): Cell Death at 10 μM |
| CCOc1ccc(C(=O)Nc2ccc(Cl)c(Cl)c2)cc1NC(=O)CC1CC1 [NU-613] | 98 | 158 | 85 | 186 | – |
| COCC(=O)Nc1cc(C(=O)Nc2ccc(Cl)c(Cl)c2)ccc1OC [NU-462] | 62 | 170 | 53 | 282 | – |
| CC(C)C(=O)Nc1cc(C(=O)Nc2ccc(Cl)c(Cl)c2)ccc1OCCOCCNC(=O)CCCCC1SC[C@@H]2NC(=O)N[C@H]12 (some centres unmarked) [NU-127] | – | – | – | 68 | Cytotoxicity: Cell Proliferation Blocked at [6]: Cell Proliferation Blocked at 10 μM |
| COCCOc1ccc(C(=O)Nc2ccc(Cl)c(Cl)c2)cc1NC(=O)CC1CC1 [NU-617] | 74 | 182 | – | 191 | – |
| COc1ccc(C(=O)Nc2ccc(Cl)c(Cl)c2)cc1NS(C)(=O)=O [NU-467] | 79 | 146 | 64 | 194 | – |
| CC(C)(C)OC(=O)NCCOCCOc1ccc(C(=O)Nc2ccc(Cl)c(Cl)c2)cc1NC(=O)CC1CC1 [NU-126] | – | – | – | 4.8 | Cytotoxicity: Cell Proliferation Blocked at [6]: Cell Proliferation Blocked at 10 μM |
| COc1ccc(C(=O)Nc2ccc(Cl)c(Cl)c2)cc1NC(=O)CN(C)C [NU-471] | 66 | 175 | 65 | 238 | – |
| CCOc1ccc(C(=O)Nc2ccc(Cl)c(Cl)c2)cc1NC(=O)C1CCC1 [NU-612] | 81 | 178 | 96 | 202 | – |
| COc1ccc(C(=O)Nc2ccc(Cl)c(Cl)c2)cc1NC(=O)N(C)C [NU-472] | 61 | 146 | 49 | 238 | – |
| COc1ccc(C(=O)Nc2ccc(Cl)c(Cl)c2)cc1NC(=O)C1CCCO1 (centres unmarked) [NU-464] | 77 | 170 | 77 | 288 | – |
| COCCOc1ccc(C(=O)Nc2ccc(Cl)c(Cl)c2)cc1NC(=O)C1CCC1 [NU-616] | 95 | 152 | – | 171 | – |
| CCC(=O)Nc1cc(C(=O)Nc2cc(OC)c(OC)c(OC)c2)ccc1OC [NU-57] | – | – | – | – | Vif-A3G-Luc Activity (% of RLUs compared to DMSO treated control) [5]: 74%; A3G-Luc Activity (% of Relative Light Units compared to DMSO treated control) ([4]; 30 μM): 87% |
| COc1ccc(C(=O)Nc2ccc(Cl)c(Cl)c2)cc1NC(=O)C1CC1C (centres unmarked) [NU-465] | 47 | 106 | 53 | 193 | – |
| COc1ccc(C(=O)Nc2ccc(Cl)c(Cl)c2)cc1N(C)C(=O)C(C)C [NU-611] | – | 75 | – | 67 | BC-1 cell proliferation [7]: inhibit BC-1 cell proliferation |
| CC(C)C(=O)Nc1cc(C(=O)Nc2ccc(Cl)c(Cl)c2)ccc1OCCOCCNC(=O)OC(C)(C)C [NU-125] | – | – | – | 25 | Cytotoxicity: Cell Proliferation Blocked at [6]: Cell Proliferation Blocked at 10 μM |
| COc1ccc(C(=O)Nc2cc(OC)c(OC)c(OC)c2)cc1NC(C)=O [NU-58] | – | – | – | – | Vif-A3G-Luc Activity (% of RLUs compared to DMSO treated control) [5]: 93%; A3G-Luc Activity (% of Relative Light Units compared to DMSO treated control) ([4]; 30 μM): 123% |
| COCCC(=O)Nc1cc(C(=O)Nc2ccc(Cl)c(Cl)c2)ccc1OC [NU-463] | 64 | 178 | 67 | 287 | – |
| COc1ccc(C(=O)Nc2ccc(F)cc2)cc1NC(=O)C(C)C [NU-564] | 72 | 102 | – | 162 | – |
| CC(C)(C)OC(=O)NCCOCCOc1ccc(C(=O)Nc2ccc(Cl)c(Cl)c2)cc1N [NU-124] | – | – | – | 25 | Cytotoxicity: Cell Proliferation Blocked at [6]: Cell Proliferation Blocked at 10 μM |
| COC(=O)Nc1cc(C(=O)Nc2ccc(Cl)c(Cl)c2)ccc1OC [NU-460] | 34 | 119 | 34 | 254 | – |
